Reference: patent US20240092758A1, “IMIDAZOLO INDAZOLE COMPOUNDS AS JAK INHIBITORS” (Theravance Biopharma R&D IP, LLC, priority 2021, published 2024)

Legend:
TYK2 = TYK2 (Homo sapiens (Human), UniProt P29597); test: Biochemical JAK kinase assay (LanthaScreen), Tyk2; conditions: read-out: Tyk2 pKi (converted)
Method: A panel of four LanthaScreen JAK biochemical assays (JAK1, 2, 3 and Tyk2) were carried in a common kinase reaction buffer (50 mM HEPES, pH 7.5, 0.01% Brij-35, 10 mM MgCl2, and 1 mM EGTA). Recombinant GST-tagged JAK enzymes and a GFP-tagged STAT1 peptide substrate were obtained from Life Technologies.
Serially diluted compounds were pre-incubated with each of the four JAK enzymes and the substrate in white 384-well microplates (Corning) at ambient temperature for 1 h. ATP was subsequently added to initiate the kinase reactions in 10 μL total volume, with 1% DMSO. The final enzyme concentrations for JAK1, 2, 3 and Tyk2 are 4.2 nM, 0.1 nM, 1 nM, and 0.25 nM respectively; the corresponding Km ATP concentrations used are 25 μM, 3 μM, 1.6 μM, and 10 μM; while the substrate concentration is 200 nM for all four assays. Kinase reactions were allowed to proceed for 1 hour at ambient temperature before a 10 μL preparation of EDTA (10 mM final concentration) and Tb-anti-pSTAT1 (pTyr701) antibody (Life Technologies, 2 nM final concentration) in TR-FRET dilution buffer (Life Technologies) was added. The plates were allowed to incubate at ambient temperature for 1 h before being read on the EnVision reader (Perkin Elmer). Emission ratio signals (520 nm/495 nm) were recorded and utilized to calculate the percent inhibition values based on DMSO and background controls.
For dose-response analysis, percent inhibition data were plotted vs. compound concentrations, and IC50 values were determined from a 4-parameter robust fit model with the Prism software (GraphPad Software). Results were expressed as pIC50 (negative logarithm of IC50) and subsequently converted to pKi (negative logarithm of dissociation constant, Ki) using the Cheng-Prusoff equation.
Test compounds having a lower Ki value or higher pKi value in the four JAK assays show greater inhibition of JAK activity.

JAK1 = JAK1 (Homo sapiens (Human), UniProt P23458); test: Biochemical JAK kinase assay (LanthaScreen), JAK1; conditions: for Ki: read-out: JAK1 pKi (converted)
Outline: (§1)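 LanthaScreen format: phospho-STAT1 (pTyr701) detected with 2 nM Tb antibody after 10 mM EDTA quench. Kinase step used Km-level ATP and 200 nM STAT1 peptide, 1 h at ambient after 1 h pre-incubation. Inhibition fitted to IC50, reported as pKi.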

[1] = test system: IL-13 induced STAT6 phosphorylation in BEAS-2B human lung epithelial cells; test: Cellular JAKI potency assay (BEAS-2B); type: cell-based; conditions: Homo sapiens, BEAS-2B, BEAS-2B cells, read-out: BEAS2B pIC50 (converted)
Outline: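 AlphaLISA SureFire detection of Tyr641 pSTAT6 in lysates gave IC50s (4-parameter fit, expressed as pIC50). Cells: human BEAS-2B, exposed 1 h at 37 °C to compound dose series at 0.1% DMSO, then 30 min to IL-13 added at 80 ng/mL in HEPES-buffered HBSS with BSA.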

JAK2 = JAK2 (Homo sapiens (Human), UniProt O60674); test: Biochemical JAK kinase assay (LanthaScreen), JAK2; conditions: for Ki: read-out: JAK2 pKi (converted)
Outline: as §1

JAK1, sequence (P23458 whole entry): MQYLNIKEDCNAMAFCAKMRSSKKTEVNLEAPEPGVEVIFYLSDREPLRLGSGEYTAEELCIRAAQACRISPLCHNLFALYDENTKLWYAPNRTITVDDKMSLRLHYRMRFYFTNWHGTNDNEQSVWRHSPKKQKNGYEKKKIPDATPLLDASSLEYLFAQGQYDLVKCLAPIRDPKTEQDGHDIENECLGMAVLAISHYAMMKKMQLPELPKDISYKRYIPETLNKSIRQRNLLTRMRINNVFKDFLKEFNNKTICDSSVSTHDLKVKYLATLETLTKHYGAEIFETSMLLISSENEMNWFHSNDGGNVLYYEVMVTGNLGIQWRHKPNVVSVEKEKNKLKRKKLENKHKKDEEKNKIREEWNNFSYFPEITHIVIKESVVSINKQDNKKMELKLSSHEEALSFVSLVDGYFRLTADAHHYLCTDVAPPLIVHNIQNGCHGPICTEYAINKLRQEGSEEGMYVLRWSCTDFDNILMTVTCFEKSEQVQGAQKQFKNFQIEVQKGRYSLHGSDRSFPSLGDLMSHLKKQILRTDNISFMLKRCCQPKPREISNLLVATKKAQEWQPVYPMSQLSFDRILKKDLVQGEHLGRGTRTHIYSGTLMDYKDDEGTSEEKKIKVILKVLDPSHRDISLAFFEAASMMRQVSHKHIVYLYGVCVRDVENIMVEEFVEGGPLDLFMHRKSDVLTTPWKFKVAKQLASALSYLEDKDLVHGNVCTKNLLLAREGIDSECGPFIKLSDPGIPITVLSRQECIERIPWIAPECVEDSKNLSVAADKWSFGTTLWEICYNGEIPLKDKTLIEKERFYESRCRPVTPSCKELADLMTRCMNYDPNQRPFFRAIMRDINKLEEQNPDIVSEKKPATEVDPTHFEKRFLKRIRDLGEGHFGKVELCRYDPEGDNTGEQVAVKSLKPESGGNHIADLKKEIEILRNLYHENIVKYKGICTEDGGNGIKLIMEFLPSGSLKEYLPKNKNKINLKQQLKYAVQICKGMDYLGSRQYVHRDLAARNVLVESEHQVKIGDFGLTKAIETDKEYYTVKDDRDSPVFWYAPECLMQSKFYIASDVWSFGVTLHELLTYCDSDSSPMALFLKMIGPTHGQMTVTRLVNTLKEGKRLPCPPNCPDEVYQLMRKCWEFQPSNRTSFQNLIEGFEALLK
JAK2, sequence (O60674 whole entry): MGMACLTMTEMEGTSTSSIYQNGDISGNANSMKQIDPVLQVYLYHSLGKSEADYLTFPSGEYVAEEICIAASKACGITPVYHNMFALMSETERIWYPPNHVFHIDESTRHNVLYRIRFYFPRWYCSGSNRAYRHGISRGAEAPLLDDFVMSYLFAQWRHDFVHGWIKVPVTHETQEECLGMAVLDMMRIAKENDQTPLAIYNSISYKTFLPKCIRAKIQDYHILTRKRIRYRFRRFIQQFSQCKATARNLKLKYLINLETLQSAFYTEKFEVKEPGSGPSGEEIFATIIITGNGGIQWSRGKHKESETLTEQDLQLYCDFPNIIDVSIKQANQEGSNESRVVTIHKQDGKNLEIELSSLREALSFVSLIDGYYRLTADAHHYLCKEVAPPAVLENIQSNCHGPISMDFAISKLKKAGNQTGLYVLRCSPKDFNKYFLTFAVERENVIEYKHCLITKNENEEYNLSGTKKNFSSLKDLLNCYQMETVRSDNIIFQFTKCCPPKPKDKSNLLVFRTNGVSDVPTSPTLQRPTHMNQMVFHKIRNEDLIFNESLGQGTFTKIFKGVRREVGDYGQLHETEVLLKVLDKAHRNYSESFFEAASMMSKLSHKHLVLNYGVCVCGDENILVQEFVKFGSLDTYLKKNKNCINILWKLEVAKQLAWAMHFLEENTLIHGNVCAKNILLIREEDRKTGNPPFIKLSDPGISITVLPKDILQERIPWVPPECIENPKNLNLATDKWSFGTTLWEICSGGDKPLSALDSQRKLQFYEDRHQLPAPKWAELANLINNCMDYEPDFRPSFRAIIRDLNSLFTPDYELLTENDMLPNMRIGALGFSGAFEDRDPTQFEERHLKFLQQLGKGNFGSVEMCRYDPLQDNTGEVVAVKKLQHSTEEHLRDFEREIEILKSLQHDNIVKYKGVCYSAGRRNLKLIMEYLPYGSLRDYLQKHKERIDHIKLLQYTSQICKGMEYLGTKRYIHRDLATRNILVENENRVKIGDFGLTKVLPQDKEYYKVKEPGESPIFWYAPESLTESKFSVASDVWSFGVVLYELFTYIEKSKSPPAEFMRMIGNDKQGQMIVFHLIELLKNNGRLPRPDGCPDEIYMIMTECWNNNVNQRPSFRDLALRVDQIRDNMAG
TYK2, sequence (P29597 whole entry): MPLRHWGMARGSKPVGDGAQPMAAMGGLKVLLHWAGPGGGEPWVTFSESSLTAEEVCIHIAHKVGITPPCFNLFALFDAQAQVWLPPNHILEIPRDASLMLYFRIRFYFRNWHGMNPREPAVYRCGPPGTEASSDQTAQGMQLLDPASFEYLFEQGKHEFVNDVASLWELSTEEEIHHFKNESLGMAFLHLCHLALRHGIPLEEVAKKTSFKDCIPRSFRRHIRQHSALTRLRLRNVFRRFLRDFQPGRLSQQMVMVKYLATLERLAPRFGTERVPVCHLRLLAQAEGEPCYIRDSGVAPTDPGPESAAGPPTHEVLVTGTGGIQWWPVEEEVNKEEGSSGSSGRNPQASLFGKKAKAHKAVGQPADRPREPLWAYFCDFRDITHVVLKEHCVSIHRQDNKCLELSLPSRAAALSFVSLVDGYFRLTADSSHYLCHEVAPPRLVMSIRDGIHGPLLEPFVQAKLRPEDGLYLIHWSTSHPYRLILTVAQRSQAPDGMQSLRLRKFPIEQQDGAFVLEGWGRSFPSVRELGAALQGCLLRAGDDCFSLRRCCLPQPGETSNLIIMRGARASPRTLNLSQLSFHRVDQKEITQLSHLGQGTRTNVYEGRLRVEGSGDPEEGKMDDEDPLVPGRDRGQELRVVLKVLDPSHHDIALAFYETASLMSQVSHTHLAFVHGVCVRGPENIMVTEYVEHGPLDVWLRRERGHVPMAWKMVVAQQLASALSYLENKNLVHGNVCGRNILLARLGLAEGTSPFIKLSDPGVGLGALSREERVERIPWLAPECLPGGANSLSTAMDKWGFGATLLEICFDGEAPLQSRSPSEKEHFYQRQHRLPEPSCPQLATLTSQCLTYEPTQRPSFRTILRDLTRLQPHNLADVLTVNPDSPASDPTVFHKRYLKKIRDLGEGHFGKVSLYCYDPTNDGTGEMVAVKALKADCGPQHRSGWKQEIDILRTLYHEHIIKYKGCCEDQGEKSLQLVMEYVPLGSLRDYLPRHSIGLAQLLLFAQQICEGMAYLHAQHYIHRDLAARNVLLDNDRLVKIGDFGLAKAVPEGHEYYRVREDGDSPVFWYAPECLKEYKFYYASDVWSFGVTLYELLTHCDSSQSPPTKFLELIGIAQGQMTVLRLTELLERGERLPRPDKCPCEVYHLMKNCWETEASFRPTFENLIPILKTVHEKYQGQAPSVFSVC

SMILES | Ki (TYK2) [nM] | Ki (JAK1) [nM] | IC50 [1] [nM] | JAK1 pKi (JAK1) | Ki (JAK2) [nM] | JAK2 pKi (JAK2)
CCc1cc(O)ccc1-c1ccc2c(-c3nc(C4=CCN(C5CCCNC5)C4)c[nH]3)n[nH]c2c1F (stereo not shown) [Example 222] | 1 to 10 | 0.1 to 1 | 10 to 31.6 | – | – | –
CCc1cc(O)ccc1-c1ccc2c(-c3nc(C4=CCN(C(=O)[C@@H](N)Cc5ccccc5)CC4)c[nH]3)n[nH]c2c1 [Example 176] | 1 to 10 | 0.1 to 1 | 31.6 to 100 | – | – | –
CCc1cc(O)ccc1-c1ccc2c(-c3nc(C4=CCN(C[C@@H]5COCCN5C)C4)c[nH]3)n[nH]c2c1F [Example 221] | 0.1 to 1 | 0.1 to 1 | 10 to 31.6 | – | – | –
CCc1cc(O)ccc1-c1ccc2c(-c3nc(C4=CCN(C[C@@H]5COCCN5C(=O)OC(C)(C)C)CC4)c[nH]3)n[nH]c2c1 [Example 383] | 10 to 100 | 0.1 to 1 | 31.6 to 100 | – | – | –
CCc1cc(O)ccc1-c1ccc2c(-c3nc(C4=CCCN(C5CCCCC5)C4)c[nH]3)n[nH]c2c1F [Example 126] | 1 to 10 | 0.1 to 1 | 31.6 to 100 | – | – | –
CCc1cc(O)ccc1-c1ccc2c(-c3nc(C4=CCN(C5CCN(C)CC5)CC4)c[nH]3)n[nH]c2c1 [Example 182] | 1 to 10 | – | 10 to 31.6 | A (A represents a pKi value ≥10 (Ki≤0.1 nM)) | 0.1 to 1 | –
CCc1cc(O)ccc1-c1ccc2c(-c3nc(C4=CCN(C(=O)[C@@H]5CCCN5)CC4)c[nH]3)n[nH]c2c1 [Example 177] | 1 to 10 | 0.1 to 1 | 31.6 to 100 | – | – | –
CCc1cc(O)ccc1-c1ccc2c(-c3nc(C4=CCN(CCN)CC4)c[nH]3)n[nH]c2c1F [Example 187] | 1 to 10 | 0.1 to 1 | 31.6 to 100 | – | 0.1 to 1 | –
CCc1cc(O)ccc1-c1ccc2c(-c3nc(C4=CCN(C5CCCCC5)CC4)c[nH]3)n[nH]c2c1F [Example 122] | 1 to 10 | 0.1 to 1 | 31.6 to 100 | – | – | –
CCc1cc(O)ccc1-c1ccc2c(-c3nc(C4=CCCN(C[C@@H]5COCCN5)C4)c[nH]3)n[nH]c2c1 [Example 193] | 1 to 10 | 0.1 to 1 | 31.6 to 100 | – | 0.1 to 1 | –
CCc1cc(O)ccc1-c1ccc2c(-c3nc(C4=CCCN(C5CCCNC5)C4)c[nH]3)n[nH]c2c1F (stereo not shown) [Example 216] | 1 to 10 | 1 to 10 | 100 to 316 | – | 0.1 to 1 | –
CCc1cc(O)ccc1-c1ccc2c(-c3nc(C4=CCN(CCN)C4)c[nH]3)n[nH]c2c1F [Example 203] | 1 to 10 | 0.1 to 1 | 31.6 to 100 | – | – | –
CCc1cc(O)ccc1-c1ccc2c(-c3nc(C4=CC(C)(C)NC(C)(C)C4)c[nH]3)n[nH]c2c1 [Example 226] | 1 to 10 | 0.1 to 1 | 10 to 31.6 | – | – | –
CCc1cc(O)c(F)cc1-c1ccc2c(-c3nc(C4=CCNC4)c[nH]3)n[nH]c2c1F [Example 18, 4-(3-(4-(2,5-dihydro-1H-pyrrol-3-yl)-1H-imidazol-2-yl)-7-fluoro-1H-indazol-6-yl)-5-ethyl-2-fluorophenol] | 1 to 10 | – | 3.16 to 10 | A (A represents a pKi value ≥10 (Ki≤0.1 nM)) | – | –
CCc1cc(O)ccc1-c1ccc2c(-c3nc(C4=CCN(S(=O)(=O)C5CNC5)C4)c[nH]3)n[nH]c2c1F [Example 180] | 10 to 100 | 1 to 10 | 31.6 to 100 | – | – | –
CCc1cc(O)ccc1-c1ccc2c(-c3nc(C4=CCN(CCNC)C4)c[nH]3)n[nH]c2c1F [Example 204] | 1 to 10 | 0.1 to 1 | 31.6 to 100 | – | – | –
CCc1cc(O)ccc1-c1ccc2c(-c3nc(C4=CCN(C(=O)[C@@H]5CCCN5)C4)c[nH]3)n[nH]c2c1F [Example 181] | 1 to 10 | 0.1 to 1 | 31.6 to 100 | – | – | –
CCc1cc(O)ccc1-c1ccc2c(-c3nc(C4=CCCN(CCN5CCOCC5)C4)c[nH]3)n[nH]c2c1F [Example 198] | 1 to 10 | 0.1 to 1 | 10 to 31.6 | – | 0.1 to 1 | –
CCc1cc(O)ccc1-c1ccc2c(-c3nc(C4=CCN(C5CCCNC5)CC4)c[nH]3)n[nH]c2c1F (stereo not shown) [Example 211] | 1 to 10 | 0.1 to 1 | 31.6 to 100 | – | – | –
CCc1cc(O)ccc1-c1ccc2c(-c3nc(C4=CCN(CCNC)CC4)c[nH]3)n[nH]c2c1F [Example 188] | 1 to 10 | 0.1 to 1 | 31.6 to 100 | – | – | –
CCc1cc(O)ccc1-c1ccc2c(-c3nc(C4=CCCN(C[C@H]5COCCN5)C4)c[nH]3)n[nH]c2c1F [Example 197] | 1 to 10 | 0.1 to 1 | 31.6 to 100 | – | – | –
CCc1cc(O)ccc1-c1ccc2c(-c3nc(C4=CCCN(C5CCOCC5)C4)c[nH]3)n[nH]c2c1F [Example 69] | 1 to 10 | 0.1 to 1 | 10 to 31.6 | – | 0.1 to 1 | –
CCc1cc(O)ccc1-c1ccc2c(-c3nc(C4=CCN(C(=O)[C@@H]5CCCN5)CC4)c[nH]3)n[nH]c2c1F [Compound 16, (S)-6-(2-ethyl-4-hydroxyphenyl)-7-fluoro-3-(4-(1-prolyl-1,2,3,6-tetrahydropyridin-4-yl)-1H-imidazol-2-yl)-1H-indazole] | 1 to 10 | 1 to 10 | 31.6 to 100 | – | – | –
CCc1cc(O)ccc1-c1ccc2c(-c3nc(C4=CCN(C(=O)[C@@H](N)Cc5ccccc5)CC4)c[nH]3)n[nH]c2c1F [Example 179] | 10 to 100 | 1 to 10 | 100 to 316 | – | – | –
CCc1cc(O)ccc1-c1ccc2c(-c3nc(C4=CCN(C[C@@H]5COCCN5C)CC4)c[nH]3)n[nH]c2c1F [Example 210] | 1 to 10 | 0.1 to 1 | 10 to 31.6 | – | – | A (A represents a pKi value ≥10 (Ki≤0.1 nM))
CCc1cc(O)ccc1-c1ccc2c(-c3nc(C4=CCN(CCNC)CC4)c[nH]3)n[nH]c2c1 [Example 183] | 1 to 10 | 0.1 to 1 | 31.6 to 100 | – | – | –
CCc1cc(O)ccc1-c1ccc2c(-c3nc(C4=CCNCC4)c(C)[nH]3)n[nH]c2c1 [Example 291] | 0.1 to 1 | – | 3.16 to 10 | A (A represents a pKi value ≥10 (Ki≤0.1 nM)) | – | –
CCc1cc(O)ccc1-c1ccc2c(-c3nc(C4=C[C@H](CO)N(CCO)C4)c[nH]3)n[nH]c2c1F [Example 263] | – | – | 10 to 31.6 | A (A represents a pKi value ≥10 (Ki≤0.1 nM)) | – | A (A represents a pKi value ≥10 (Ki≤0.1 nM))
CCc1cc(O)ccc1-c1ccc2c(-c3nc(C4=CCN(CCCOC)CC4)c[nH]3)n[nH]c2c1 [Example 56] | – | – | 3.16 to 10 | A (A represents a pKi value ≥10 (Ki≤0.1 nM)) | – | A (A represents a pKi value ≥10 (Ki≤0.1 nM))
